{"source": "patent US8772446B2", "about": "“Bifunctional chelating agents” (Nordion (Canada) Inc., priority 2010, dated 2014)", "key": {"[1]": {"assay": "Solution thermodynamics: formation constants (log KML) and pM of Ga(III) complexes, potentiometric titration", "type": "physicochemical", "conditions": "Ga(III) complex; ligand-ligand competition with EDTA, potentiometric titration, 25 °C, 0.16 M NaCl", "description": "A more relevant indicator of the extent to which a metal complex is formed in solution is given by pM (−log free M) which considers the influence of ligand basicity and chelate hydrolysis.\nCarbonate-free solutions of the titrant, NaOH, were prepared by dilution of 50% solution (Acros Organics) with freshly boiled MQ water under a stream of purified nitrogen gas. The solution was standardized with potassium acid phthalate and the extent of carbonate accumulation was periodically checked by titration with a standard hydrochloric acid solution and determination of the corresponding Gran titration plot.^47 Gallium ion solutions were prepared by dilution of the appropriate atomic absorption (AA) standard. The exact amount of acid present in the gallium standard was determined by titration of an equimolar solution of Ga and Na2H2EDTA. The amount of acid present was determined by Gran's method.^47\nData were collected in triplicate using PC Control (Version 6.0.91, Metrohm). The titration apparatus consisted of a 10 mL water jacketed glass vessel maintained at 25.0±0.1° C. (Julabo waterbath). Prior to and during the course of the titration, a blanket of nitrogen, passed through 10% NaOH to exclude any CO2, was maintained over the sample solution. The ionic strength was maintained at 0.16 M using NaCl. Prior to each potentiometric equilibrium study, the electrode was calibrated using standard HCl solutions. Calibration data were analysed by standard computer treatment provided within the program MacCalib to obtain the calibration parameters E0 and pKw.\nAs the degree of formation of Ga(III) complexes at low pH (<2) was too high for the determination of stability constants by use of direct potentiometry, the ligand-ligand competition method using Na2H2EDTA was also performed."}, "[2]": {"assay": "Biodistribution in female ICR mice", "type": "in vivo", "description": "The protocol used in the animal studies was approved by the Institutional Animal Care Committee of the University of British Columbia and was performed in accordance with the Canadian Council on Animal Care Guidelines. A total of 16 female ICR (20-30 g) mice were used for the animal study of each of the three compounds. ^67Ga(dedpa)^+, ^67Ga(66)^+, or ^67Ga(69)^+ was prepared as described above and then diluted in phosphate buffered saline to a concentration of 100 μCi/mL. Each mouse was i.v. injected with ˜10 μCi (100 μL) of the ^67Ga complex and then sacrificed by CO2 inhalation at 30 min, 1 h, 2 h, or 4 h after injection (n=4 at each time point). Blood was collected by cardiac puncture and plasma was separated from whole blood by centrifuging (2500 rpm, 15 min). Urine was collected from the bladder. Tissues collected included kidney, liver, spleen, femur, muscle, heart, lung, intestine and brain. Tissues were weighed and counted on a gamma counter and the counts were converted to % injected dose/gram (% ID/g). Tables 4-6 show the biodistibution data of ^67Ga(dedpa)^+, ^67Ga(66)^+ and ^67Ga(69)^+, respectively, in female ICR mice. FIG. 4 illustrates biodistribution over 4 h of ^67Ga(dedpa)^+ in female ICR mice, and FIG. 5 illustrates biodistribution of ^67Ga(66)^+ (upper) and ^67Ga(69)^+ (lower) in female ICR mice over 4 h; complete data for urine are shown also in separate diagrams to the right."}, "[3]": {"assay": "Serum stability studies done in vitro (^67Ga)", "type": "in vitro ADME"}, "human apo-transferrin": {"biological_target": "human apo-transferrin (Homo sapiens, UniProt P02787)", "sequence (P02787 20-698)": "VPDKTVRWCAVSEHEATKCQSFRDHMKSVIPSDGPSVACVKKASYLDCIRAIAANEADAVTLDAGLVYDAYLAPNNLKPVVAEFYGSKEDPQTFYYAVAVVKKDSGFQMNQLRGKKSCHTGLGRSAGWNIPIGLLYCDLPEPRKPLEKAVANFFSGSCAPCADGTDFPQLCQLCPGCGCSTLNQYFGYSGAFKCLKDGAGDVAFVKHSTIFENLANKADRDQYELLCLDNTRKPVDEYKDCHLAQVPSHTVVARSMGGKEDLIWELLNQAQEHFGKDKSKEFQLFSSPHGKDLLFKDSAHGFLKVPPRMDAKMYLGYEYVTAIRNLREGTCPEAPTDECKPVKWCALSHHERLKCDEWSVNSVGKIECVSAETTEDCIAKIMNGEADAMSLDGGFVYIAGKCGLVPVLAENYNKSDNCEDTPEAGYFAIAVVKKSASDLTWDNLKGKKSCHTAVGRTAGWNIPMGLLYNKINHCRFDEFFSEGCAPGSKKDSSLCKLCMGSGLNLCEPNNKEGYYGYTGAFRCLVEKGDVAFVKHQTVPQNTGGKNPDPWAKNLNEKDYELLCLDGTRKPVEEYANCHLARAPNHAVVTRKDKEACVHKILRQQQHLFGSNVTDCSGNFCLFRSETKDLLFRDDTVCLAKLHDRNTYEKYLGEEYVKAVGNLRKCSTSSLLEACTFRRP", "assay": "^67Ga complex stability: 2-h competition with excess human apo-transferrin, HPLC", "conditions": "^67Ga complex, up to 2 h", "protocol": "FIG. 13 illustrates stacked labelling traces of ^67Ga(dedpa)^+ of 2 h stability experiment against apo-transferrin (gradient: A: NaOAc buffer, pH 4.5, B: MeOH. 0-100% B linear gradient 20 min)."}}, "data": [{"smiles": "O=C(O)c1cccc(CNCCNCc2cccc(C(=O)O)n2)n1", "note": "[^67Ga(dedpa)^+, metal not drawn]", "values": [{"measurement": "log KML", "setting": "[1]", "value": "28.11(8)"}, {"measurement": "Biodistribution, Brain, 30 min", "setting": "[2]; Brain, 30 min after i.v. injection, mean ± SD, 4 animals", "value": "0.264 ± 0.132", "unit": "% ID/g"}, {"measurement": "Biodistribution, Brain, 1 h", "setting": "[2]; Brain, 1 h after i.v. injection, mean ± SD, 4 animals", "value": "0.246 ± 0.123", "unit": "% ID/g"}, {"measurement": "Biodistribution, Brain, 2 h", "setting": "[2]; Brain, 2 h after i.v. injection, mean ± SD, 4 animals", "value": "0.213 ± 0.106", "unit": "% ID/g"}, {"measurement": "Biodistribution, Brain, 4 h", "setting": "[2]; Brain, 4 h after i.v. injection, mean ± SD, 4 animals", "value": "0.139 ± 0.069", "unit": "% ID/g"}, {"measurement": "Biodistribution, Femur, 30 min", "setting": "[2]; Femur, 30 min after i.v. injection, mean ± SD, 4 animals", "value": "2.180 ± 1.090", "unit": "% ID/g"}, {"measurement": "Biodistribution, Femur, 1 h", "setting": "[2]; Femur, 1 h after i.v. injection, mean ± SD, 4 animals", "value": "2.136 ± 1.068", "unit": "% ID/g"}, {"measurement": "Biodistribution, Femur, 2 h", "setting": "[2]; Femur, 2 h after i.v. injection, mean ± SD, 4 animals", "value": "1.893 ± 0.946", "unit": "% ID/g"}, {"measurement": "Biodistribution, Femur, 4 h", "setting": "[2]; Femur, 4 h after i.v. injection, mean ± SD, 4 animals", "value": "2.218 ± 1.109", "unit": "% ID/g"}, {"measurement": "Biodistribution, Heart, 30 min", "setting": "[2]; Heart, 30 min after i.v. injection, mean ± SD, 4 animals", "value": "2.645 ± 1.323", "unit": "% ID/g"}, {"measurement": "Biodistribution, Heart, 1 h", "setting": "[2]; Heart, 1 h after i.v. injection, mean ± SD, 4 animals", "value": "2.490 ± 1.245", "unit": "% ID/g"}, {"measurement": "Biodistribution, Heart, 2 h", "setting": "[2]; Heart, 2 h after i.v. injection, mean ± SD, 4 animals", "value": "2.412 ± 1.206", "unit": "% ID/g"}, {"measurement": "Biodistribution, Heart, 4 h", "setting": "[2]; Heart, 4 h after i.v. injection, mean ± SD, 4 animals", "value": "2.004 ± 1.002", "unit": "% ID/g"}, {"measurement": "Biodistribution, Intestine, 30 min", "setting": "[2]; Intestine, 30 min after i.v. injection, mean ± SD, 4 animals", "value": "2.099 ± 1.050", "unit": "% ID/g"}, {"measurement": "Biodistribution, Intestine, 1 h", "setting": "[2]; Intestine, 1 h after i.v. injection, mean ± SD, 4 animals", "value": "2.123 ± 1.062", "unit": "% ID/g"}, {"measurement": "Biodistribution, Intestine, 2 h", "setting": "[2]; Intestine, 2 h after i.v. injection, mean ± SD, 4 animals", "value": "1.995 ± 0.998", "unit": "% ID/g"}, {"measurement": "Biodistribution, Intestine, 4 h", "setting": "[2]; Intestine, 4 h after i.v. injection, mean ± SD, 4 animals", "value": "1.990 ± 0.995", "unit": "% ID/g"}, {"measurement": "Biodistribution, Kidney, 30 min", "setting": "[2]; Kidney, 30 min after i.v. injection, mean ± SD, 4 animals", "value": "8.089 ± 4.009", "unit": "% ID/g"}, {"measurement": "Biodistribution, Kidney, 1 h", "setting": "[2]; Kidney, 1 h after i.v. injection, mean ± SD, 4 animals", "value": "7.827 ± 3.914", "unit": "% ID/g"}, {"measurement": "Biodistribution, Kidney, 2 h", "setting": "[2]; Kidney, 2 h after i.v. injection, mean ± SD, 4 animals", "value": "9.149 ± 4.575", "unit": "% ID/g"}, {"measurement": "Biodistribution, Kidney, 4 h", "setting": "[2]; Kidney, 4 h after i.v. injection, mean ± SD, 4 animals", "value": "8.301 ± 4.150", "unit": "% ID/g"}, {"measurement": "Biodistribution, Liver, 30 min", "setting": "[2]; Liver, 30 min after i.v. injection, mean ± SD, 4 animals", "value": "3.702 ± 1.851", "unit": "% ID/g"}, {"measurement": "Biodistribution, Liver, 1 h", "setting": "[2]; Liver, 1 h after i.v. injection, mean ± SD, 4 animals", "value": "3.695 ± 1.847", "unit": "% ID/g"}, {"measurement": "Biodistribution, Liver, 2 h", "setting": "[2]; Liver, 2 h after i.v. injection, mean ± SD, 4 animals", "value": "3.173 ± 1.586", "unit": "% ID/g"}, {"measurement": "Biodistribution, Liver, 4 h", "setting": "[2]; Liver, 4 h after i.v. injection, mean ± SD, 4 animals", "value": "2.736 ± 1.368", "unit": "% ID/g"}, {"measurement": "Biodistribution, Lung, 30 min", "setting": "[2]; Lung, 30 min after i.v. injection, mean ± SD, 4 animals", "value": "4.878 ± 2.439", "unit": "% ID/g"}, {"measurement": "Biodistribution, Lung, 1 h", "setting": "[2]; Lung, 1 h after i.v. injection, mean ± SD, 4 animals", "value": "4.896 ± 2.448", "unit": "% ID/g"}, {"measurement": "Biodistribution, Lung, 2 h", "setting": "[2]; Lung, 2 h after i.v. injection, mean ± SD, 4 animals", "value": "4.846 ± 2.423", "unit": "% ID/g"}, {"measurement": "Biodistribution, Lung, 4 h", "setting": "[2]; Lung, 4 h after i.v. injection, mean ± SD, 4 animals", "value": "3.260 ± 1.630", "unit": "% ID/g"}, {"measurement": "Biodistribution, Muscle, 30 min", "setting": "[2]; Muscle, 30 min after i.v. injection, mean ± SD, 4 animals", "value": "1.210 ± 0.605", "unit": "% ID/g"}, {"measurement": "Biodistribution, Muscle, 1 h", "setting": "[2]; Muscle, 1 h after i.v. injection, mean ± SD, 4 animals", "value": "1.153 ± 0.576", "unit": "% ID/g"}, {"measurement": "Biodistribution, Muscle, 2 h", "setting": "[2]; Muscle, 2 h after i.v. injection, mean ± SD, 4 animals", "value": "1.092 ± 0.546", "unit": "% ID/g"}, {"measurement": "Biodistribution, Muscle, 4 h", "setting": "[2]; Muscle, 4 h after i.v. injection, mean ± SD, 4 animals", "value": "1.127 ± 0.564", "unit": "% ID/g"}, {"measurement": "Biodistribution, Serum, 30 min", "setting": "[2]; Serum, 30 min after i.v. injection, mean ± SD, 4 animals", "value": "16.067 ± 8.033", "unit": "% ID/g"}, {"measurement": "Biodistribution, Serum, 1 h", "setting": "[2]; Serum, 1 h after i.v. injection, mean ± SD, 4 animals", "value": "9.047 ± 4.524", "unit": "% ID/g"}, {"measurement": "Biodistribution, Serum, 2 h", "setting": "[2]; Serum, 2 h after i.v. injection, mean ± SD, 4 animals", "value": "12.042 ± 6.021", "unit": "% ID/g"}, {"measurement": "Biodistribution, Serum, 4 h", "setting": "[2]; Serum, 4 h after i.v. injection, mean ± SD, 4 animals", "value": "12.235 ± 6.118", "unit": "% ID/g"}, {"measurement": "Biodistribution, Spleen, 30 min", "setting": "[2]; Spleen, 30 min after i.v. injection, mean ± SD, 4 animals", "value": "1.366 ± 0.683", "unit": "% ID/g"}, {"measurement": "Biodistribution, Spleen, 1 h", "setting": "[2]; Spleen, 1 h after i.v. injection, mean ± SD, 4 animals", "value": "1.357 ± 0.679", "unit": "% ID/g"}, {"measurement": "Biodistribution, Spleen, 2 h", "setting": "[2]; Spleen, 2 h after i.v. injection, mean ± SD, 4 animals", "value": "1.273 ± 0.637", "unit": "% ID/g"}, {"measurement": "Biodistribution, Spleen, 4 h", "setting": "[2]; Spleen, 4 h after i.v. injection, mean ± SD, 4 animals", "value": "0.989 ± 0.495", "unit": "% ID/g"}, {"measurement": "Excretion route (in words)", "setting": "[2]; mice, i.v.", "value": "excreted mainly through the kidneys"}, {"measurement": "Time to clearance from background tissue, such as muscle", "setting": "[2]; mice, i.v.", "value": "≤ 30", "unit": "min"}, {"measurement": "Bone uptake (in words)", "setting": "[2]; mice, i.v., indicator for complex stability", "value": "low uptake in bone"}, {"measurement": "Serum stability in vitro (in words)", "setting": "[3]", "value": "stable to transchelation by serum proteins"}, {"measurement": "Complex stability against apo-transferrin (in words)", "setting": "human apo-transferrin; listed as 67/68Ga(dedpa)^+", "value": "No decomposition was detected"}, {"measurement": "Complex stability against apo-transferrin (in words)", "setting": "human apo-transferrin; listed as 67Ga(dedpa)^+", "value": "fully intact"}, {"measurement": "Complex stability against apo-transferrin (in words)", "setting": "human apo-transferrin; listed as Ga(dedpa)^+", "value": "no decomposition was detected"}]}]}
